Data: PubChem BioAssay (NCI)
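Following 48 hours of exposure in 96-well plates, responses at five concentrations were used to interpolate endpoints linearly. TGI marks complete inhibition of growth.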

Legend:
Assay in all cases: inhibition of tumour cell growth, NCI panel, 48 h
[1] = system: SR leukemia
[2] = system: HL-60(TB) leukemia
[3] = system: UACC-257 melanoma
[4] = system: A498 renal
[5] = system: UACC-62 melanoma
[6] = system: HOP-62 NSCLC
[7] = system: K-562 leukemia
[8] = system: UO-31 renal
[9] = system: NCI-H226 lung
[10] = system: OVCAR-4 ovarian
[11] = system: SF-539 CNS
[12] = system: RPMI-8226 leukemia

## CC(=O)O[C@@]12CO[C@@H]1CC(O)[C@@]1(C)C(=O)[C@H](O)C3=C(C)C(O)C[C@@](O)(C(OC(=O)c4ccccc4)C12)C3(C)C (some centres not stated)
[1]
  TGI: > 100 µM
[2]
  TGI: > 100 µM
[3]
  TGI: > 26.8 µM
[4]
  TGI: > 100 µM
[5]
  TGI: 3.7 µM
[6]
  TGI: > 100 µM
[7]
  TGI: > 100 µM
[8]
  TGI: > 100 µM
[9]
  TGI: > 100 µM
[10]
  TGI: > 100 µM
[11]
  TGI: 2.16 µM
[12]
  TGI: > 100 µM

## CN(C)CCCNc1ccc2ncn3c4ccc(O)cc4c(=O)c1c23
[1]
  TGI: 1.55 µM
[2]
  TGI: 13.1 µM
[3]
  TGI: 24.5 µM
[4]
  TGI: 7.6 µM
[5]
  TGI: 13.5 µM
[6]
  TGI: 8.97 µM
[7]
  TGI: 28 µM
[8]
  TGI: 11.4 µM
[9]
  TGI: 3.59 µM
[10]
  TGI: 8.01 µM
[11]
  TGI: 15.7 µM
[12]
  TGI: 18.2 µM

## C[n+]1c2ccccc2c(NC(CCCN=C(N)N)C(=O)O)c2ccccc21 (configuration not stated)
[1]
  TGI: > 100 µM
[2]
  TGI: > 100 µM
[3]
  TGI: > 100 µM
[4]
  TGI: > 100 µM
[5]
  TGI: > 100 µM
[6]
  TGI: > 100 µM
[7]
  TGI: > 100 µM
[8]
  TGI: > 100 µM
[9]
  TGI: > 100 µM
[10]
  TGI: > 100 µM
[11]
  TGI: > 100 µM
[12]
  TGI: > 100 µM

## OC(C/C=N/N=C/CC(O)(C(F)(F)Cl)C(F)(F)Cl)(C(F)(F)Cl)C(F)(F)Cl
[1]
  TGI: > 10 µM
[2]
  TGI: > 10 µM
[3]
  TGI: > 10 µM
[4]
  TGI: > 10 µM
[5]
  TGI: > 10 µM
[6]
  TGI: > 10 µM
[7]
  TGI: > 10 µM
[8]
  TGI: > 10 µM
[9]
  TGI: > 10 µM
[10]
  TGI: > 10 µM
[11]
  TGI: > 10 µM
[12]
  TGI: > 10 µM

## O=C1C=C(Nc2ccc(S(=O)(=O)Nc3nccs3)cc2)c2ccccc2C1=O
[1]
  TGI: > 100 µM
[2]
  TGI: 59.8 µM
[3]
  TGI: > 100 µM
[4]
  TGI: > 100 µM
[5]
  TGI: 53.5 µM
[6]
  TGI: 29.7 µM
[7]
  TGI: > 100 µM
[8]
  TGI: > 100 µM
[9]
  TGI: 70.1 µM
[10]
  TGI: > 100 µM
[11]
  TGI: 41.2 µM
[12]
  TGI: 98.5 µM

## C=CC1(CC[C@]2(c3ccc(OC)c(OC)c3)C=[N+]([O-])O[C@H](O[C@@H]3CCCC[C@H]3C(C)(C)c3ccccc3)C2)OCC(C)(C)CO1
[1]
  TGI: > 38.9 µM
[2]
  TGI: 4.81 µM
[3]
  TGI: > 54.2 µM
[4]
  TGI: > 61 µM
[5]
  TGI: 33.9 µM
[6]
  TGI: 36.5 µM
[7]
  TGI: > 56.9 µM
[8]
  TGI: > 48.7 µM
[9]
  TGI: 38 µM
[10]
  TGI: 28.9 µM
[11]
  TGI: 31.2 µM
[12]
  TGI: 26.5 µM

## Oc1c(Br)ccc2cccnc12
[1]
  TGI: > 27.7 µM
[2]
  TGI: 1.32 µM
[4]
  TGI: 51.8 µM
[5]
  TGI: 7 µM
[6]
  TGI: > 100 µM
[7]
  TGI: > 31.4 µM
[8]
  TGI: 22.8 µM
[9]
  TGI: 38.5 µM
[10]
  TGI: > 92.9 µM
[11]
  TGI: > 50.6 µM
[12]
  TGI: > 27.9 µM

## O=C1c2c(Br)sc(Br)c2C(=O)C1(O)O
[1]
  TGI: 57.4 µM
[2]
  TGI: > 100 µM
[3]
  TGI: 37.4 µM
[4]
  TGI: > 100 µM
[5]
  TGI: > 100 µM
[6]
  TGI: > 100 µM
[7]
  TGI: 79.8 µM
[8]
  TGI: 58.2 µM
[9]
  TGI: > 100 µM
[10]
  TGI: 34.3 µM
[11]
  TGI: 39.4 µM
[12]
  TGI: > 100 µM

## O=C1CCSCCC(=O)Nc2ccccc2N1
[1]
  TGI: > 100 µM
[2]
  TGI: > 100 µM
[3]
  TGI: > 100 µM
[4]
  TGI: > 100 µM
[5]
  TGI: > 100 µM
[6]
  TGI: > 100 µM
[7]
  TGI: > 100 µM
[8]
  TGI: > 100 µM
[9]
  TGI: > 100 µM
[10]
  TGI: > 100 µM
[11]
  TGI: > 100 µM
[12]
  TGI: > 100 µM
